Paper PMC5908295 (Oncotarget, 2018)

Columns and labels:
[1] = test system: S6 phosphorylation (Ser235/236) in KG-1 cells; assay: S6 phosphorylation, Western blot; format: cell-based; details: Homo sapiens; KG-1, 4 hours; read-out: IC50 S6 phosphorylation (Ser235/236), Western blotting
Protocol: (§1) Cells were collected, washed twice with cold PBS, and lysed in RIPA buffer and kept on ice for 10 min. Tumor specimens from xenograft studies were homogenized in RIPA buffer using OMNI TH Tissue Homogenizer and kept on ice for 30 min. After incubation, cell and tumor lysates were centrifuged at 13,000×g at 4°C for 10 min and the supernatants were stored at −80°C until use. Protein concentration was measured using the Bradford method. For SDS-PAGE, 50 μg of protein in the Laemmli sample buffer was loaded onto 10% polyacrylamide gels and electrophoresed. Thereafter, proteins were transferred onto polyvinylidene fluoride (PVDF) membranes (Millipore). After blocking with 5% non-fat dry milk/TBS-T or 2% BSA/TBS-T, membranes were incubated with specific primary antibodies (listed in Supplementary Table 2) at 4 °C overnight. After extensive washing in PBS-T, membranes were incubated for 60 min with appropriate secondary peroxidase-conjugated IgG. The immunoreactive proteins were detected using an enhanced chemiluminescence (ECL) substrate (GE Healthcare) and visualized with Hyperfilm-ECL (GE Healthcare Biosciences).

[2] = test system: S6 phosphorylation (Ser235/236) in MOLM-13 cells; assay: S6 phosphorylation, Western blot; format: cell-based; details: Homo sapiens; MOLM-13, 4 hours; read-out: IC50 S6 phosphorylation (Ser235/236), Western blotting
Protocol: as §1

[3] = test system: S6 phosphorylation (Ser235/236) in MOLM-16 cells; assay: S6 phosphorylation, Western blot; format: cell-based; details: MOLM16; MOLM-16, 4 hours; read-out: IC50 S6 phosphorylation (Ser235/236), Western blotting
Protocol: as §1

[4] = test system: S6 phosphorylation (Ser235/236) in MV-4-11 cells; assay: S6 phosphorylation, Western blot; format: cell-based; details: Homo sapiens, MV4-11; MV-4-11, 4 hours; read-out: IC50 S6 phosphorylation (Ser235/236), Western blotting
Protocol: as §1

[5] = Metabolic stability, liver microsomes; format: in vitro ADME; details: Dog, 37 °C, read-out: Liver microsomes t1/2 (converted)
CYP3A4 = target: T1, CYP3A4 (Homo sapiens, UniProt P08684); assay: CYP isoforms inhibition; format: in vitro ADME; details: 5-dose, 3-fold dilution starting at 30 µM
T1 construct: Cambridge Bioscience Limited (ran the assay)
Protocol: (§2) or absence of enzyme cofactors. The assay was performed microsomes. (Supplementary Table 7).
(§3) with the respective reference samples (i.e. without measured at Cambridge Bioscience Limited (except
(§4) cofactors). After incubation, drug transformation by liver CYP1A2 inhibition which was measured in-house). […]
The control compound
(§5) The analysis of two standard compounds (i.e. positive a very weak potential for CYP inhibition with IC50
(§6) and negative controls) was included. […]

CYP2C9 = target: T2, CYP2C9 (Homo sapiens, UniProt P11712); assay: CYP isoforms inhibition; format: in vitro ADME; details: 5-dose, 3-fold dilution starting at 30 µM
T2 construct: Cambridge Bioscience Limited (ran the assay)
Protocol: as §2, §3, §4, §5, §6

[6] = test system: MV-4-11 tumors (FLT3-ITD+); assay: MV-4-11 subcutaneous xenograft, single agent; format: in vivo, SCID/beige mice; details: PO
Text: All animals were handled in strict accordance with good animal practice as defined by the relevant national and local animal welfare bodies. SCID and SCID/beige C.B-17 mice were provided by Harlan Laboratories or Charles River Laboratories, and were maintained in pathogen free conditions. For the xenograft experiments, age-matched (9-11 weeks old) females were used. 5×10^6 of MV-4-11 or MOLM-16 cells were suspended in a mixture (1:1, v:v) of PBS with Matrigel (BD Biosciences,) and injected subcutaneously (sc), in a total volume of 100 μL, above the groin on the right hind limb. For MOLM-13 and KG-1 cells, a mixture (3:1, v:v) of PBS and Matrigel HC (BD Bioscience,) was used to inject 5 × 10^6 of cell per mouse subcutaneously (sc), in a total volume of 100 μL. When tumors reached 100-130 mm^3, mice were randomized into uniform groups (6-9 mice per group) and subsequently administered the compound. […] At the end of the experiment, mice were anesthetized with isofluran and blood samples for total cell counts and biochemistry were obtained by retro-orbital bleeding. […] 5×10^6 cells suspended in a mixture (3:1, v:v) of PBS and Matrigel were injected as described above. When the tumor volume reached ~120 mm^3, mice were randomized into uniform groups (5 mice per group) and the compound then administered. […] Tumor volume was monitored every second day and calculated using the formula: TV = (a^2×b)/2, where “a” is the short axis in millimeters, and “b” is the long axis in millimeters. Body weight was assessed every day.

KG-1 (FLT3-WT) tumor = assay: KG-1 subcutaneous xenograft; format: in vivo; details: KG-1, SCID mice; doses not given
Text: All animals were handled in strict accordance with good animal practice as defined by the relevant national and local animal welfare bodies. SCID and SCID/beige C.B-17 mice were provided by Harlan Laboratories or Charles River Laboratories, and were maintained in pathogen free conditions. For the xenograft experiments, age-matched (9-11 weeks old) females were used. 5×10^6 of MV-4-11 or MOLM-16 cells were suspended in a mixture (1:1, v:v) of PBS with Matrigel (BD Biosciences,) and injected subcutaneously (sc), in a total volume of 100 μL, above the groin on the right hind limb. For MOLM-13 and KG-1 cells, a mixture (3:1, v:v) of PBS and Matrigel HC (BD Bioscience,) was used to inject 5 × 10^6 of cell per mouse subcutaneously (sc), in a total volume of 100 μL. When tumors reached 100-130 mm^3, mice were randomized into uniform groups (6-9 mice per group) and subsequently administered the compound. […] At the end of the experiment, mice were anesthetized with isofluran and blood samples for total cell counts and biochemistry were obtained by retro-orbital bleeding. […] 5×10^6 cells suspended in a mixture (3:1, v:v) of PBS and Matrigel were injected as described above. […] Tumor volume was monitored every second day and calculated using the formula: TV = (a^2×b)/2, where “a” is the short axis in millimeters, and “b” is the long axis in millimeters. Body weight was assessed every day.

MV-4-11 = assay: Drug interactions (combination index), MTS; format: cell-based; details: MV-4-11, broad range of concentrations
Protocol: and AC220 in AML cell lines was assessed using an MTS assay. Cells viability was measured after 72 h incubation with three-fold serial dilutions of compounds, starting at 10 µM concentration. Obtained data were presented as percentage of viable cells compared with control (untreated) cells viability. Error bars indicate SD.
11 cells. Combination index (CI) are shown on the Y axis and compound concentrations are shown on X and Z axes. Values […] and below 0.7- a synergy between tested compounds. Values above 1 indicate an antagonistic effect.
(1 picture or pasted object on this page, not shown here)

MOLM-16 (FLT3-WT) cells = assay: Western blot of FLT3/PIM downstream signaling; format: cell-based; details: MOLM-16, 4 hours
Protocol: (§7) Thereafter, we assessed the activities of FLT3-ITD – induced key pro-survival signaling pathways; STAT5, RAF/MEK/ERK and PI3K/AKT (Figure 3). […] Since the expression of a major anti-apoptotic BCL2 family member, MCL1, is regulated by translation, and PIM kinases regulate protein synthesis through 4EBP1, we also assessed the abundance of MCL1.
as §1

[7] = test system: MV-4-11 (FLT3-ITD+) cells; assay: Western blot of FLT3/PIM downstream signaling; format: cell-based; details: MV-4-11, 4 hours
Protocol: as §7, §1

MOLM-16 = assay: MTS viability assay, 72 h; details: MOLM16, 72 h
Protocol: (§8) On the same day, 50 μL of medium containing tested inhibitor was added to the wells. Each compound was tested at 8 concentrations, in triplicates. As a negative control, the medium containing 0.1% DMSO was used. […] Staurosporine was used at 10 μM as a positive control. One the day of drug addition, basal signal from untreated cells was measured from in triplicate to determine time zero (T0). […] GI50 and LC50 values were extrapolated from a variable (four-parameter) dose-response curve fitted in GraphPad Prism.

KG-1 = assay: MTS viability assay, 72 h; details: Homo sapiens, KG-1, 72 h
Protocol: 15-25 ×10^3 of MV-4-11, MOLM-13, MOLM-14, MOLM-16, KG-1, Eol-1, SKM-1, PL-21, GDM-1, SKNO-1, RS4;11, Kasumi-3 and Kasumi-6 cells were seeded in 150 μL of culture medium onto individual wells in a 96 well plates, in triplicates. On the same day, 50 μL of medium containing tested inhibitor was added to the wells. Each compound was tested at 8 concentrations, in triplicates. As a negative control, the medium containing 0.1% DMSO was used. […] Staurosporine was used at 10 μM as a positive control. One the day of drug addition, basal signal from untreated cells was measured from in triplicate to determine time zero (T0). […] GI50 and LC50 values were extrapolated from a variable (four-parameter) dose-response curve fitted in GraphPad Prism.

OCI-AML-2 = assay: MTS viability assay, 72 h; details: Homo sapiens, OCI-AML2, 72 h
Protocol: as §8

T1 sequence (P08684 whole entry, canonical isoform): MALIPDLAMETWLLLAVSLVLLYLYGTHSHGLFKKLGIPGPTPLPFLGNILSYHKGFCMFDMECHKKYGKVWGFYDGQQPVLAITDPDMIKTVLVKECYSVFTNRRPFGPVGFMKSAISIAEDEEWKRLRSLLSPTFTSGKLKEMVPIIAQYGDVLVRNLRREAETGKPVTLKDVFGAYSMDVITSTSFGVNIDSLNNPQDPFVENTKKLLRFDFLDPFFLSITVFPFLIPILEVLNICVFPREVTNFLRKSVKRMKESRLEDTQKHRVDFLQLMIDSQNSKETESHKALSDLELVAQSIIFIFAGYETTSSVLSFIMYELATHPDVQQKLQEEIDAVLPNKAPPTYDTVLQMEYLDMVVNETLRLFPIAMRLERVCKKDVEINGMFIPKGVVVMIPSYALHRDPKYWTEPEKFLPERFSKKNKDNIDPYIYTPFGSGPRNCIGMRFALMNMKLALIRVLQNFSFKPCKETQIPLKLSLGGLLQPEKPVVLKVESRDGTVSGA
T2 sequence (P11712 whole entry, canonical isoform): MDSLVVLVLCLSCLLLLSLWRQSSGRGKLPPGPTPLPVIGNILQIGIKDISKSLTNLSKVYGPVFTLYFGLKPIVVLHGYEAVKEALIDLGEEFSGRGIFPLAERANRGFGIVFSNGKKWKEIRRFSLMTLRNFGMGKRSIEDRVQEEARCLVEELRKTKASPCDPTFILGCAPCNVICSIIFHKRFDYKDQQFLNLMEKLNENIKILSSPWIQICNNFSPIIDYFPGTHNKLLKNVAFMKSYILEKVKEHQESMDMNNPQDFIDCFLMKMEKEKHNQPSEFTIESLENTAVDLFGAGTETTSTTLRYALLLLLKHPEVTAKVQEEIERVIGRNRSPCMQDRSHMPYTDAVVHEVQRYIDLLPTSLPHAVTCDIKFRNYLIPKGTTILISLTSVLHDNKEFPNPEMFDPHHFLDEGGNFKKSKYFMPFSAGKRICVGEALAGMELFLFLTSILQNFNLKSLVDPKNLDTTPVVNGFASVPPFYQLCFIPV

In the case of `CC(C)n1c(C2CCNCC2)nc2c([N+](=O)[O-])c(Br)c(Br)cc21` [SEL24-B489, 5,6-dibromo-4-nitro-2-(piperidin-4-yl)-1-(propan-2-yl)-1H-1,3-benzodiazole], the IC50 [1] is reported as 0.031 µM, the IC50 [2] is reported as 0.003 µM and the IC50 [3] is reported as 0.035 µM. The IC50 [4] was 0.001 µM, the half-life at 1 µM [5] was 7.6 h and the IC50 (CYP3A4) was > 100 µM. For the same compound, the IC50 (CYP2C9) was > 150 µM, the “tumor growth inhibition (TGI)” value ([6]; MV-4-11, 50 mg/kg daily) was 67% and the “tumor growth inhibition (TGI)” value ([6]; MV-4-11, 75 mg/kg daily) was 74%. The “tumor growth inhibition (TGI)” value ([6]; MV-4-11, 100 mg/kg daily) was 82%, the TGI (KG-1 (FLT3-WT) tumor) was ~ 50% and the “pharmacological interaction with AraC” value (MV-4-11) was “marked synergy”. The “pharmacological interaction with vosaroxin” value (MV-4-11) was “marked synergy”, the “S6 (S235/236) phosphorylation” value (MOLM-16 (FLT3-WT) cells) was “profound inhibition” and the MCL1 abundance [7] was “markedly decreased”. The STAT5 signaling [7] was “completely blocked”, the “apoptosis indicated by PARP cleavage” value [7] was “marked induction of apoptosis” and the GI50 (MOLM-16) was 0.042 µM. For the same compound, the CC50 (MOLM-16; read-out: LC50) was 0.153 µM, the GI50 (KG-1) was 0.067 µM and the CC50 (KG-1; read-out: LC50) was 2.44 µM. The GI50 (OCI-AML-2) was 0.96 µM and the CC50 (OCI-AML-2; read-out: LC50) was 2.32 µM.
